Laboratory results as given in paper PMC10906223 (JCI Insight, 2024).
Several values for one entry are separate records, joined by “and”; a condition that tells them apart may be missing. Equal entries are not always repeated.

Tests used:
[1] = tested on: primary mouse hepatocytes; test: Glucose output from primary mouse hepatocytes; type: cell-based
Procedure: Primary hepatocyte culture was performed following previous publications ([63], [64]). Briefly, livers were extracted from C57BL/6J (n = 5), rinsed in HBSS, and minced. The minced tissue was treated with collagenase P solution (9 μg/mL) neutralized by DMEM containing 10% FBS. Following settling of undigested tissue, the supernatant was collected and centrifuged at 490g for 1 minute. The pellet was treated with red blood cell lysis buffer (8.26 g NH4Cl, 1 g NaHCO3, 0.037 g Na2EDTA in 1,000 mL of distilled water) for 3 minutes, diluted with HBSS containing 6% FBS, and centrifuged at 490g for 1 minute. The resulting pellet was washed 2 times using HBSS containing 6% FBS (290g, 1 minute, and 190g, 1 minute) and resuspended in HBSS containing 2% FBS. The procedure was repeated 2 additional times on the undigested tissue. The collected suspension was sequentially filtered through a 500 μm Steel Basket-Strainer (pluriSelect) and Falcon 100 µm Cell Strainer (Corning). After centrifugation (190g, 1 minute), the pellet was resuspended in DMEM (containing 10% FBS, 100 U/mL penicillin, and 100 μg/mL streptomycin), seeded in a 48-well cell culture plate (7.5 × 10^5 cells/ well), and incubated in a cell culture incubator, overnight. Cell viability and attachment were determined by trypan blue staining.

[2] = tested on: human donor dispersed islet cells; test: Insulin secretion from healthy human donor dispersed islet cells; type: cell-based; set-up: Insulin secretion: unit not given here
Procedure: Pancreata of nondiabetic C57BL/6J mice were digested using collagenase P (Roche Diagnostics, catalog 11213873001), and islets were manually picked up using a stereomicroscope (ZEISS Stemi 305). […] Isolated mouse islets or provided human islets were dispersed as described ([28]). Briefly, 100–120 islets were washed 2 times using modified HBSS, then dispersed in 600 μL Accutase (Innovative Cell Technologies, catalog AT-104) by gently pipetting up and down for 7 minutes at 37°C. […] Following refreshing of KRBH, cells were dispensed in 8 microfuge tubes (2,000 cells/tube) and treated with WCDD301, preclustered Ephrin-A5 Fc, or preclustered Fc in the presence or absence of the competitive inhibitor of EphA4 receptor, rhyncophylline ([60]) (MilliporeSigma, catalog SML2345). In the presence or absence of these effectors, secretion assay was performed sequentially as shown in Supplemental Table 5. […] Preclustering of Ephrin-A5 Fc was done by mixing Ephrin-A5 Fc or Fc alone (BioLegend, catalog 790102) with anti-Fc antibody (Invitrogen, catalog A16086) (1:10 molar ratio) 20 minutes before treatment ([62]). […] Shedding of cleaved EphA4 was measured from the cell culture medium. Experiments were performed by dispersion of 200 islets, and EphA4 levels in media were measured by EphA4 ELISA (ABclonal, catalog RK06572).
The Integrated Islet Distribution Program provided us human donor islets with their characteristics (Supplemental Table 6). Islets were centrifuged at 500g for 3 minutes, resuspended in CMRL 1066 medium (Gibco, catalog 1150-037) containing 11 mM glucose, and rested in an incubator overnight.
For the hormone secretion assay, islets or dispersed islet cells were adapted in KRBH buffer containing 11 mM glucose for 1 hour. Then, after 2 washes in HBSS containing 11 mM glucose, islets or cells were treated in the following sequential order in the presence or absence of WCDD301: incubation in KRBH (1 mM glucose, 30 minutes) followed by medium collection, incubation in KRBH (11 mM glucose, 30 minutes) followed by medium collection.

[3] = Glucose (1 mM), WCDD301 0.75 µM
[4] = Glucose (11 mM), WCDD301 0.75 µM
[5] = Glucose (11 mM), WCDD301 1.5 µM

With CC(=O)OCC(N)(COC(C)=O)COC(C)=O [WCDD301, 2-(acetoxymethyl)-2-aminopropane-1,3-diyl diacetate] the Glucagon-stimulated glucose output ([1]; 100 nM glucagon, 3 μM WCDD301) was “did not alter glucagon-stimulated glucose output”, the “Glucose output from hepatocytes (Figure 6G)” value ([1]; WCDD301 +, Glucagon +) was 15.2 and 14.9 and 17.2 and 21 and the “Effect on insulin secretion” value ([2]; 1, 3 or 6 hours exposure) was “transient effect”. For the same compound, the Insulin secretion ([2]; 1 hour exposure, WCDD301 0.75 µM, 1 mM (first group), Figure 2D) was 0.23 and 0.21 and 0.2, the Insulin secretion ([2]; 1 hour exposure, WCDD301 0.75 µM, head printed 1 mM (second group c4-c7), Figure 2D) was 0.277 and 0.233 and 0.25 and the Insulin secretion ([2]; 1 hour exposure, WCDD301 1.5 µM, 1 mM (first group), Figure 2D) was 0.247 and 0.17 and 0.22. For the same compound, the Insulin secretion ([2]; 1 hour exposure, WCDD301 1.5 µM, head printed 1 mM (second group c4-c7), Figure 2D) was 0.299 and 0.278 and 0.26, the Insulin secretion ([2]; 1 hour exposure, WCDD301 3 µM, 1 mM (first group), Figure 2D) was 0.133 and 0.134 and 0.23 and the Insulin secretion ([2]; 1 hour exposure, WCDD301 3 µM, head printed 1 mM (second group c4-c7), Figure 2D) was 0.196 and 0.199 and 0.27. For the same compound, the Insulin secretion ([2]; 3 hours exposure, WCDD301 0.75 µM, 1 mM (first group), Figure 2E) was 0.188 and 0.216 and 0.2, the Insulin secretion ([2]; 3 hours exposure, WCDD301 0.75 µM, head printed 1 mM (second group c4-c7), Figure 2E) was 0.279 and 0.305 and 0.31 and the Insulin secretion ([2]; 3 hours exposure, WCDD301 1.5 µM, 1 mM (first group), Figure 2E) was 0.156 and 0.166 and 0.2. The Insulin secretion ([2]; 3 hours exposure, WCDD301 1.5 µM, head printed 1 mM (second group c4-c7), Figure 2E) was 0.227 and 0.252 and 0.3, the Insulin secretion ([2]; 3 hours exposure, WCDD301 3 µM, 1 mM (first group), Figure 2E) was 0.23 and 0.247 and 0.22 and the Insulin secretion ([2]; 3 hours exposure, WCDD301 3 µM, head printed 1 mM (second group c4-c7), Figure 2E) was 0.249 and 0.253 and 0.31. The Insulin secretion ([2]; 6 hours exposure, WCDD301 0.75 µM, 1 mM (first group), Figure 2F) was 0.248 and 0.23 and 0.252, the Insulin secretion ([2]; 6 hours exposure, WCDD301 0.75 µM, head printed 1 mM (second group c4-c7), Figure 2F) was 0.383 and 0.391 and 0.37 and the Insulin secretion ([2]; 6 hours exposure, WCDD301 1.5 µM, 1 mM (first group), Figure 2F) was 0.257 and 0.265 and 0.24. For the same compound, the Insulin secretion ([2]; 6 hours exposure, WCDD301 1.5 µM, head printed 1 mM (second group c4-c7), Figure 2F) was 0.41 and 0.395 and 0.38, the Insulin secretion ([2]; 6 hours exposure, WCDD301 3 µM, 1 mM (first group), Figure 2F) was 0.185 and 0.176 and 0.25 and the Insulin secretion ([2]; 6 hours exposure, WCDD301 3 µM, head printed 1 mM (second group c4-c7), Figure 2F) was 0.327 and 0.324 and 0.4. The “Insulin secretion (Supplemental Figure 4A; quantity not given)” value [2, 3] was 14.24 and 14.812 and 14.5, the “Insulin secretion (Supplemental Figure 4B; quantity not given)” value [2, 3] was 12.664 and 13.794 and 14 and the “Insulin secretion (Supplemental Figure 4C; quantity not given)” value [2, 3] was 11.67 and 7.26 and 14. For the same compound, the “Insulin secretion (Supplemental Figure 4A; quantity not given)” value ([2]; Glucose (1 mM), WCDD301 1.5 µM) was 17.532 and 20.466 and 12, the “Insulin secretion (Supplemental Figure 4B; quantity not given)” value ([2]; Glucose (1 mM), WCDD301 1.5 µM) was 15.67 and 15.802 and 13.5 and the “Insulin secretion (Supplemental Figure 4C; quantity not given)” value ([2]; Glucose (1 mM), WCDD301 1.5 µM) was 13.328 and 14.218 and 10. The “Insulin secretion (Supplemental Figure 4A; quantity not given)” value ([2]; Glucose (1 mM), WCDD301 3 µM) was 16.564 and 14.55 and 11.5, the “Insulin secretion (Supplemental Figure 4B; quantity not given)” value ([2]; Glucose (1 mM), WCDD301 3 µM) was 18.692 and 16.896 and 14 and the “Insulin secretion (Supplemental Figure 4C; quantity not given)” value ([2]; Glucose (1 mM), WCDD301 3 µM) was 12.61 and 13.59 and 9. The “Insulin secretion (Supplemental Figure 4A; quantity not given)” value [2, 4] was 22.29 and 19.8308 and 21, the “Insulin secretion (Supplemental Figure 4B; quantity not given)” value [2, 4] was 16.996 and 15.584 and 14.5 and the “Insulin secretion (Supplemental Figure 4A; quantity not given)” value [2, 5] was 29.994 and 17.548 and 22. For the same compound, the “Insulin secretion (Supplemental Figure 4B; quantity not given)” value [2, 5] was 19.714 and 16.496 and 13, the “Insulin secretion (Supplemental Figure 4A; quantity not given)” value ([2]; Glucose (11 mM), WCDD301 3 µM) was 17.376 and 17.746 and 23 and the “Insulin secretion (Supplemental Figure 4B; quantity not given)” value ([2]; Glucose (11 mM), WCDD301 3 µM) was 17.584 and 17.686 and 13. For the same compound, the “Insulin secretion (Supplemental Figure 4C; quantity not given)” value ([2]; Glucose (11 mM), WCDD301 3 µM) was 16.66 and 13.592 and 8.5.
